Experimental data taken from PubChem BioAssay (NCI).
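Values below derive from 48-hour exposures of cells grown in 96-well plates, with endpoints linearly interpolated between the two concentrations bracketing the appropriate inhibition level. TGI: concentration producing complete growth inhibition.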

Assays:
Assay in all cases: NCI-60 cell line screen, 48 h
MCF7 breast = test system: MCF7 breast
OVCAR-4 ovarian = test system: OVCAR-4 ovarian
M14 melanoma = test system: M14 melanoma
HT29 colon = test system: HT29 colon
HS 578T breast = test system: HS 578T breast
COLO 205 colon = test system: COLO 205 colon
T-47D breast = test system: T-47D breast
SK-OV-3 ovarian = test system: SK-OV-3 ovarian
MOLT-4 leukemia = test system: MOLT-4 leukemia
RPMI-8226 leukemia = test system: RPMI-8226 leukemia
MDA-MB-231 breast = test system: MDA-MB-231 breast
A498 renal = test system: A498 renal
HL-60(TB) leukemia = test system: HL-60(TB) leukemia
MDA-MB-435 = test system: MDA-MB-435
UO-31 renal = test system: UO-31 renal
NCI-H23 lung = test system: NCI-H23 lung
TK-10 renal = test system: TK-10 renal
ACHN renal = test system: ACHN renal
HCT-116 colon = test system: HCT-116 colon
NCI-H460 lung = test system: NCI-H460 lung
BT-549 breast = test system: BT-549 breast
UACC-257 melanoma = test system: UACC-257 melanoma
786-0 renal = test system: 786-0 renal
NCI/ADR-RES ovarian = test system: NCI/ADR-RES ovarian
HCC-2998 colon = test system: HCC-2998 colon
LOX IMVI melanoma = test system: LOX IMVI melanoma
UACC-62 melanoma = test system: UACC-62 melanoma
CAKI-1 renal = test system: CAKI-1 renal
PC-3 prostate = test system: PC-3 prostate
SK-MEL-2 melanoma = test system: SK-MEL-2 melanoma
SF-295 CNS = test system: SF-295 CNS
SF-539 CNS = test system: SF-539 CNS
EKVX NSCLC = test system: EKVX NSCLC
U251 CNS = test system: U251 CNS
IGROV1 ovarian = test system: IGROV1 ovarian
RXF 393 renal = test system: RXF 393 renal
SR leukemia = test system: SR leukemia
K-562 leukemia = test system: K-562 leukemia
HCT-15 colon = test system: HCT-15 colon
KM12 colon = test system: KM12 colon
HOP-62 NSCLC = test system: HOP-62 NSCLC
SW-620 colon = test system: SW-620 colon
DU-145 prostate = test system: DU-145 prostate
SK-MEL-5 melanoma = test system: SK-MEL-5 melanoma
SNB-75 CNS = test system: SNB-75 CNS
SNB-19 CNS = test system: SNB-19 CNS
SK-MEL-28 melanoma = test system: SK-MEL-28 melanoma
HOP-92 NSCLC = test system: HOP-92 NSCLC
NCI-H226 lung = test system: NCI-H226 lung
CCRF-CEM leukemia = test system: CCRF-CEM leukemia
SF-268 CNS = test system: SF-268 CNS
OVCAR-8 ovarian = test system: OVCAR-8 ovarian

Measured: TGI

COc1ccc2c(=O)c3c([nH]c2c1)OCC3=O
> 100 µM: all assays above
